# According to patent US10004701B2, “Methods and compositions for treating infection” (UNIVERSITY OF ROCHESTER, priority 2012, dated 2018):
# Where a name gives a salt, the structure may show the parent alone. Read-outs that look alike come from different tables or passages of the source.
# What was measured:
# Test in all cases: AK assay 384-well format, Prestwick library screening
# [1] = tested on: A. baumannii strain 98-37-09; assay type: cell-based, Acinetobacter baumannii; conditions: 50 μM final drug concentration; for fold induction at 50 µM: Acinetobacter baumannii, 983709, 3 h
# [2] = tested on: E. coli; assay type: cell-based, Escherichia coli; conditions: 50 μM final drug concentration; for fold induction at 50 µM: Escherichia coli, 3 h
# [3] = tested on: E. faecium; assay type: cell-based, Enterococcus faecium; conditions: 50 μM final drug concentration; for fold induction at 50 µM: Enterococcus faecium, 3 h
# [4] = tested on: E. cloacae; assay type: cell-based, Enterobacter cloacae; conditions: 50 μM final drug concentration; for fold induction at 50 µM: Enterobacter cloacae, 3 h
# [5] = tested on: P. aeruginosa; assay type: cell-based, Pseudomonas aeruginosa; conditions: 50 μM final drug concentration; for fold induction at 50 µM: Pseudomonas aeruginosa, 3 h
# [6] = tested on: K. pneumoniae; assay type: cell-based, Klebsiella pneumoniae; conditions: 50 μM final drug concentration; for fold induction at 50 µM: Klebsiella pneumoniae, 3 h
# [7] = tested on: S. aureus strain USA300-0114; assay type: cell-based, Staphylococcus aureus; conditions: 50 μM final drug concentration; for fold induction at 50 µM: Staphylococcus aureus, USA300, 3 h
# [8] = 384-well format, cutoff for positive-scoring molecules 3-fold increase, read-out: AK-based Prestwick Library Screening Results, A. baumannii (increase in extracellular AK activity)
# [9] = 384-well format, cutoff for positive-scoring molecules 3-fold increase, read-out: AK-based Prestwick Library Screening Results, E. coli (increase in extracellular AK activity)
# [10] = 384-well format, cutoff for positive-scoring molecules 3-fold increase, read-out: AK-based Prestwick Library Screening Results, E. faecium (increase in extracellular AK activity)
# [11] = 384-well format, cutoff for positive-scoring molecules 3-fold increase, read-out: AK-based Prestwick Library Screening Results, E. cloacae (increase in extracellular AK activity)
# [12] = 384-well format, cutoff for positive-scoring molecules 3-fold increase, read-out: AK-based Prestwick Library Screening Results, P. aeruginosa (increase in extracellular AK activity)
# [13] = 384-well format, cutoff for positive-scoring molecules 3-fold increase, read-out: AK-based Prestwick Library Screening Results, K. pneumoniae (increase in extracellular AK activity)
# [14] = 384-well format, cutoff for positive-scoring molecules 3-fold increase, read-out: AK-based Prestwick Library Screening Results, S. aureus (increase in extracellular AK activity)
# [15] = planktonic, cutoff for positive-scoring molecules 3-fold increase
# [16] = planktonic, cutoff for positive 3-fold increase
structure (smiles),measurement,setting,value
O=C(c1ccccc1)c1ccc2n1CCC2C(=O)O (stereo not shown) [Ketorolac tromethamine],fold induction at 50 µM,"[1]; cutoff for positive-scoring molecules 3-fold increase, read-out: AK-based Prestwick Library Screening Results, A. baumannii (fold increase in extracellular AK activity)",1
same,fold induction at 50 µM,"[2]; cutoff for positive-scoring molecules 3-fold increase, read-out: AK-based Prestwick Library Screening Results, E. coli (fold increase in extracellular AK activity)",1.3
same,fold induction at 50 µM,"[3]; cutoff for positive-scoring molecules 3-fold increase, read-out: AK-based Prestwick Library Screening Results, E. faecium (fold increase in extracellular AK activity)",1
same,fold induction at 50 µM,"[4]; cutoff for positive-scoring molecules 3-fold increase, read-out: AK-based Prestwick Library Screening Results, E. cloacae (fold increase in extracellular AK activity)",1.4
same,fold induction at 50 µM,"[5]; cutoff for positive-scoring molecules 3-fold increase, read-out: AK-based Prestwick Library Screening Results, P. aeruginosa (fold increase in extracellular AK activity)",1
same,fold induction at 50 µM,"[6]; cutoff for positive-scoring molecules 3-fold increase, read-out: AK-based Prestwick Library Screening Results, K. pneumoniae (fold increase in extracellular AK activity)",1
same,fold induction at 50 µM,"[7]; cutoff for positive-scoring molecules 3-fold increase, read-out: AK-based Prestwick Library Screening Results, S. aureus (fold increase in extracellular AK activity)",1.1
CN1CCC(=C2c3ccccc3CC(=O)c3sccc32)CC1 [Ketotifen fumarate],fold induction at 50 µM,"[1]; planktonic, cutoff for positive 3-fold increase, read-out: AK-based Prestwick Library Screening Results, A. baumannii (fold increase in extracellular AK activity)",1.1
same,fold induction at 50 µM,"[2]; planktonic, cutoff for positive 3-fold increase, read-out: AK-based Prestwick Library Screening Results, E. coli (fold increase in extracellular AK activity)",1.3
same,fold induction at 50 µM,"[3]; planktonic, cutoff for positive 3-fold increase, read-out: AK-based Prestwick Library Screening Results, E. faecium (fold increase in extracellular AK activity)",1
same,fold induction at 50 µM,"[4]; planktonic, cutoff for positive 3-fold increase, read-out: AK-based Prestwick Library Screening Results, E. cloacae (fold increase in extracellular AK activity)",1.7
same,fold induction at 50 µM,"[5]; planktonic, cutoff for positive 3-fold increase, read-out: AK-based Prestwick Library Screening Results, P. aeruginosa (fold increase in extracellular AK activity)",1.1
same,fold induction at 50 µM,"[6]; planktonic, cutoff for positive 3-fold increase, read-out: AK-based Prestwick Library Screening Results, K. pneumoniae (fold increase in extracellular AK activity)",0.9
same,fold induction at 50 µM,"[7]; planktonic, cutoff for positive 3-fold increase, read-out: AK-based Prestwick Library Screening Results, S. aureus (fold increase in extracellular AK activity)",1.1
COc1c2occc2c(OC)c2c(=O)cc(C)oc12 [Khellin],fold induction at 50 µM,[1]; [8],0.7
same,fold induction at 50 µM,[2]; [9],0.6
same,fold induction at 50 µM,[3]; [10],0.9
same,fold induction at 50 µM,[4]; [11],0.7
same,fold induction at 50 µM,[5]; [12],0.7
same,fold induction at 50 µM,[6]; [13],0.6
same,fold induction at 50 µM,[7]; [14],0.7
Cl.OC1CCCCC1N1CCC(c2ccccc2)CC1 (stereo not drawn) [L(−)-vesamicol hydrochloride],"AK-based Prestwick Library Screening Results, A. baumannii (fold increase in extracellular AK activity)",[1]; [15],0.8
same,"AK-based Prestwick Library Screening Results, E. coli (fold increase in extracellular AK activity)",[2]; [15],0.8
same,"AK-based Prestwick Library Screening Results, E. faecium (fold increase in extracellular AK activity)",[3]; [15],0.9
same,"AK-based Prestwick Library Screening Results, E. cloacae (fold increase in extracellular AK activity)",[4]; [15],1.2
same,"AK-based Prestwick Library Screening Results, P. aeruginosa (fold increase in extracellular AK activity)",[5]; [15],0.8
same,"AK-based Prestwick Library Screening Results, K. pneumoniae (fold increase in extracellular AK activity)",[6]; [15],0.7
same,"AK-based Prestwick Library Screening Results, S. aureus (fold increase in extracellular AK activity)",[7]; [15],0.8
CC(CCc1ccccc1)NCC(O)c1ccc(O)c(C(N)=O)c1 (stereo not shown) [Labetalol hydrochloride],fold induction at 50 µM,[1]; [8],0.9
same,fold induction at 50 µM,[2]; [9],0.9
same,fold induction at 50 µM,[3]; [10],0.9
same,fold induction at 50 µM,[4]; [11],1.3
same,fold induction at 50 µM,[5]; [12],0.9
same,fold induction at 50 µM,[6]; [13],0.7
same,fold induction at 50 µM,[7]; [14],0.8
O=C(O)[C@H](O)[C@@H](O)[C@H](O[C@@H]1O[C@H](CO)[C@H](O)[C@H](O)[C@H]1O)[C@H](O)CO [Lactobionic acid],"AK-based Prestwick Library Screening Results, A. baumannii (fold increase in extracellular AK activity)",[1]; [16],1.1
same,"AK-based Prestwick Library Screening Results, E. coli (fold increase in extracellular AK activity)",[2]; [16],1.0
same,"AK-based Prestwick Library Screening Results, E. faecium (fold increase in extracellular AK activity)",[3]; [16],1.0
same,"AK-based Prestwick Library Screening Results, E. cloacae (fold increase in extracellular AK activity)",[4]; [16],1.2
same,"AK-based Prestwick Library Screening Results, P. aeruginosa (fold increase in extracellular AK activity)",[5]; [16],1.0
same,"AK-based Prestwick Library Screening Results, K. pneumoniae (fold increase in extracellular AK activity)",[6]; [16],0.9
same,"AK-based Prestwick Library Screening Results, S. aureus (fold increase in extracellular AK activity)",[7]; [16],0.8
CC(=O)O[C@H]1C[C@H](O[C@H]2[C@@H](O)C[C@H](O[C@H]3[C@@H](O)C[C@H](O[C@H]4CC[C@@]5(C)[C@H](CC[C@@H]6[C@@H]5C[C@@H](O)[C@]5(C)[C@@H](C7=CC(=O)OC7)CC[C@]65O)C4)O[C@@H]3C)O[C@@H]2C)O[C@H](C)[C@H]1O[C@@H]1O[C@H](CO)[C@@H](O)[C@H](O)[C@H]1O [Lanatoside C],"AK-based Prestwick Library Screening Results, A. baumannii (fold increase in extracellular AK activity)","[1]; planktonic, […]",0.8
same,"AK-based Prestwick Library Screening Results, E. coli (fold increase in extracellular AK activity)","[2]; planktonic, […]",0.6
same,"AK-based Prestwick Library Screening Results, E. faecium (fold increase in extracellular AK activity)","[3]; planktonic, […]",0.9
same,"AK-based Prestwick Library Screening Results, E. cloacae (fold increase in extracellular AK activity)","[4]; planktonic, […]",1.0
same,"AK-based Prestwick Library Screening Results, P. aeruginosa (fold increase in extracellular AK activity)","[5]; planktonic, […]",0.6
same,"AK-based Prestwick Library Screening Results, K. pneumoniae (fold increase in extracellular AK activity)","[6]; planktonic, […]",0.6
same,"AK-based Prestwick Library Screening Results, S. aureus (fold increase in extracellular AK activity)","[7]; planktonic, […]",0.7
